Earlier results in patent US20150374705A1, “Substances for treatment or relief of pain” (Shanghai Institues for Biological Sciences, priority 2012, published 2015).
Entries after “also recorded” stand apart in the source; their conditions may differ.

Experiments:
[1] = test system: rat model of inflammatory and neuropathic pain; conditions: Munro G et al., Neuropharmacology 2011; cited from earlier work
[2] = molecular target: T1, Human recombinant α5-GABAA receptor (Homo sapiens, UniProt P18507+P31644); conditions: Jones et al. 2006; cited from earlier work
T1 construct: expressed in transfected cells; host or cells: 293 cell line

[3] = test system: α5-GABAA receptor in central nervous system; conditions: in vivo, Jones et al. 2006; cited from earlier work

T1 sequence (P31644 32-462): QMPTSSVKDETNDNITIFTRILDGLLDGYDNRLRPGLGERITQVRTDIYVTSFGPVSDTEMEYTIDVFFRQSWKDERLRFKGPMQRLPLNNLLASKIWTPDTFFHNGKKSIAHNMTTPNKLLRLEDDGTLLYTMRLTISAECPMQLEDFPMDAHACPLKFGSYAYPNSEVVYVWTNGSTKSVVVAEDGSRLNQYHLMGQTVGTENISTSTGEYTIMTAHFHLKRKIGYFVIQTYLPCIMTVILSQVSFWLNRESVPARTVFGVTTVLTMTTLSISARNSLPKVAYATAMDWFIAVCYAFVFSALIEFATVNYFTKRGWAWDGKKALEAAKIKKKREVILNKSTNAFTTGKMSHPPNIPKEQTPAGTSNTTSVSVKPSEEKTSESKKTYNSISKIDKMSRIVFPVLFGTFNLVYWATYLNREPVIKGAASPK
T1 sequence (P28472 26-473 isoform P28472-2 partner limits assumed): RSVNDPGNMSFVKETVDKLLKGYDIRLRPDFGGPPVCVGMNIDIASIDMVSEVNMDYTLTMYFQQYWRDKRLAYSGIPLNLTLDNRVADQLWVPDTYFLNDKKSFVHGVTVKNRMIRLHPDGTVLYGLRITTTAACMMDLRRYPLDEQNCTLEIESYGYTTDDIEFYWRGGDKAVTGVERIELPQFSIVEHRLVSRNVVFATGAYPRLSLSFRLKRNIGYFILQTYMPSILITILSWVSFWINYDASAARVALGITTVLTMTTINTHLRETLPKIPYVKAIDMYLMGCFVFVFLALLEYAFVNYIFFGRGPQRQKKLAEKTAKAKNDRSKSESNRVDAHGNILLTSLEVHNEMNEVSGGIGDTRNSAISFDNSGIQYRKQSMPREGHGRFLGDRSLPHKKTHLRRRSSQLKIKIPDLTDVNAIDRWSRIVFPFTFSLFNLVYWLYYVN
T1 sequence (P18507 40-475): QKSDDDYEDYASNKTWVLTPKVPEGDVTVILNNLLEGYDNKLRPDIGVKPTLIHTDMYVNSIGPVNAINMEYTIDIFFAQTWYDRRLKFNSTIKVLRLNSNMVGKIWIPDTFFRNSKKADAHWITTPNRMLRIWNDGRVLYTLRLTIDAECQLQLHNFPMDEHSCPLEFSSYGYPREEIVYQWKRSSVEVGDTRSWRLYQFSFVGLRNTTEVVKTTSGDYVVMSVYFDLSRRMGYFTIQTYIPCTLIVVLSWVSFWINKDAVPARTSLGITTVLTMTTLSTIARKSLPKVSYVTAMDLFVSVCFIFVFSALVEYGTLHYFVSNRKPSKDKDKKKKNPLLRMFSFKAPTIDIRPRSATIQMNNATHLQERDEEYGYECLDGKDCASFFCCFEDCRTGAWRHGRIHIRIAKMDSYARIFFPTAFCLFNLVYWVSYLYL

Question: Which “Effect on treating pain reported in literature” value [1] does the source give for `Cc1cc(-c2nnc3c4ccccc4c(OCC4=CC(C)C=N4)nn23)no1` (stereo not drawn) [α5IA] here?
Answer: no effect

Question: With `Cn1ncnc1COc1nn2c(-c3cc(CO)on3)nncc2c1C(C)(C)C` [MRK016-M3, (3-(3-tert-butyl-2-((2-methyl-2H-1,2,4-triazol-3-yl)methoxy)pyrazolo [1,5-d][1,2,4]triazin-7-yl)isoxazol-5-yl)methanol] as the compound, how does the “Inverse agonist effect of α5-GABAA receptor” value [2] read?
Answer: significant inverse agonist effect

Question: What about the “Binding to α5-GABAA receptor in brain / inhibition of (3H)Ro-15-1788 binding in center” value [3] of the same compound?
Answer: not capable of binding the α5-GABAA receptor in brain; also recorded: cannot significantly inhibit; also recorded: could hardly enter into the brain

Question: And the “Inhibition rate of the binding of (3H)Ro-15-1788 in center” value [3]?
Answer: about 12%
